“And” between values parts separate entries of the source, which are not always exact repeats. Equal values may be shown once. Marks after values point to notes of the source that are not given here.
Tests used:
xanthine oxidase (XO) = assay: Superoxide radical scavenging assay by NBT hypoxanthine/XO method; assay type: biochemical; settings: for % Control (superoxide generation by XO): water blank = 100
Description: One T. chebula (TC) based extract was tested at three different dilutions of 5, 25 and 50 μg/mL, and one T. bellerica (TB) based extract was tested at the same three dilutions. Standard positive control was allopurinol (AP) tested at 1, 5 and 10 μg/mL. […] Stock solutions of test materials were prepared at 20 mg/ml in water (TB and TC) or immediately prior to the experiment. Further dilutions were made in type I sterile water and the effect of test materials on XO-mediated free radical (superoxide) generation was assessed as previously described ([…] al., 2008), using hypoxanthine/XO/NBT (tetrazolium salt) system with the reaction product (formazan) followed at 570 nm with the BioRad microplate spectrophotometer 3550-UV. Allopurinol (AP) was the positive control, double-distilled water was the negative control (blank). P values representing statistical significance were calculated using paired t-test and threshold of statistical significance was fixed at p=0.05 and at least 15% difference as compared to the water control.

[1] = test system: serum uric acid levels in patients with hyperuricemia; assay: Randomized, double blind, placebo controlled clinical study on serum uric acid levels; assay type: in vivo, human; settings: extracts 500 mg BID oral, febuxostat 40 mg OD, Mean±SD
Description: A randomized, double blind, placebo controlled, parallel-group study was performed to evaluate the effect of Terminalia chebula and Terminalia bellerica in comparison to Febuxostat and a placebo on serum uric acid levels in patients with hyperuricemia. The present study was a prospective, randomized, double blinded, placebo controlled trial. A total of 52 patients were enrolled to receive the study treatment in a randomized manner. The study was approved by the Institutional Ethics Committee and all the subjects gave written informed consent prior to their participation in the study. Hyperuricemia patients of either gender aged between 18 and 70 years were selected, with serum uric acid level ≧6.0 mg/dL and ≦12.0 mg/dL after having stopped all uric acid-lowering therapy for at least 10 days. Patients who were willing to comply with the requirements of the study and to give voluntary, written informed consent were enrolled into the study. Patients with a gout flare during screening or baseline visit were excluded. Patients currently using aspirin or other NSAIDS, diuretics, other medications with known urate-lowering effects were also excluded from the study. Patients with history or presence of nephrolithiasis or uncontrolled hypertension or diabetes, hepatic and renal impairment, pregnant or lactating females or secondary hyperuricemia (e.g. due to myeloproliferative disorder, or organ transplant) were excluded. After screening, all the eligible patients were randomized to either of the four treatment groups in a double blinded fashion for duration of 8 weeks, prospectively 12 weeks. Group 1—Terminalia chebula 500 mg—1 capsule of 500 mg orally twice a day (BID) after food. Group 2—Terminalia bellerica 500 mg—1 capsule of 500 mg orally twice a day (BID) after food. Group 3—Febuxostat—1 tablet of 40 mg (encapsulated in a similar capsule to that of Terminalia chebula/Terminalia bellerica/placebo capsules) once daily (OD) orally in the morning after food and an identical placebo capsule in the evening after food. […] At each visit they were evaluated for efficacy measurements and safety assessments. Serum uric acid levels were measured at baseline, end of 4 weeks, and end of 8 weeks. […] The subsequent 2 visits were scheduled at 4 weeks interval (visit 3—after 4 weeks of treatment, visit 4—after 8 weeks of treatment), vital signs, general examination; serum uric acid levels were measured. Pill count for study medication was evaluated. […] Study data is expressed as Mean±SD. Primary and secondary outcome measures were analyzed as the mean percentage reduction and absolute change in serum uric acid levels from baseline to 4 weeks, 8 weeks, and (prospectively) 12 weeks of treatment. […]

hyperuricemic patients = assay: Safety and tolerability assessment in the clinical study; assay type: in vivo, human; settings: 8 weeks treatment; 13 patients per group; extracts 500 mg BID, febuxostat 40 mg OD
Description: Secondary objective: To evaluate the safety and tolerability of Terminalia chebula and Terminalia bellerica in hyperuricemic patients.
Safety lab investigations for hematological, hepatic and renal biochemical parameters were done at baseline and at the end of the study (8 weeks) and also as and when required (in case of any adverse drug reaction (ADR)). Subjects were interviewed for the presence of ADR and the same was recorded in the case report form (CRF). Compliance to therapy was assessed by pill count method.
The subsequent 2 visits were scheduled at 4 weeks interval (visit 3—after 4 weeks of treatment, visit 4—after 8 weeks of treatment), vital signs, general examination; serum uric acid levels were measured. Pill count for study medication was evaluated. At the (prospective) conclusion of the study, Visit 5 (after 12 weeks post treatment), vital signs, general examination, serum uric acid, routine safety lab investigations will be performed. […] Adverse Effects/SAE monitoring would be done throughout the course of study. Safety lab parameters will be done before and after treatment and as and when required. […]
2. Measurements of Tolerability will be assessed at the end of 8 weeks/12 weeks as: Good—no side effects; Fair—mild to moderate side effects; and/or Poor—severe side effects and withdrawal of therapy.

HepG2 cells = settings: cited from earlier work
COX-1 = settings: cited from earlier work
COX-2 = biological target: T1, COX-2 (Homo sapiens, UniProt P35354); settings: cited from earlier work
T1 sequence (P35354 18-604): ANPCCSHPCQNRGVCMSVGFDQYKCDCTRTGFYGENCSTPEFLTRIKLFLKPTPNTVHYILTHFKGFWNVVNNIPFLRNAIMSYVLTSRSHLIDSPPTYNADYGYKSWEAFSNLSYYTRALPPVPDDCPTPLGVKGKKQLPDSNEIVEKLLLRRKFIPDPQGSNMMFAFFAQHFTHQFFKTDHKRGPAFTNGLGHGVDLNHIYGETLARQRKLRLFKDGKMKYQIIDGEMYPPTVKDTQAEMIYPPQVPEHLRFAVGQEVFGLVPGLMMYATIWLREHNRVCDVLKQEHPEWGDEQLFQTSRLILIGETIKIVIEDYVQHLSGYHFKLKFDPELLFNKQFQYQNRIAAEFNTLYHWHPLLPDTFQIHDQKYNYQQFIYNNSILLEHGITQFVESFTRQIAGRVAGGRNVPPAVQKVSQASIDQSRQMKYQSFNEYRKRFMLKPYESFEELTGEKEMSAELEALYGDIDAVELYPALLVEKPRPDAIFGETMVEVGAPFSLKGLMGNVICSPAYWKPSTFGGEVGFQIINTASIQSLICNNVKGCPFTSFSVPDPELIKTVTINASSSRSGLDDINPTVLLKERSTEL

5-LOX = settings: cited from earlier work
maltase = settings: reversible and non-competitive inhibitor; read-out: K(i) value, maltase; cited from earlier work
[2] = from baseline, negative = decrease

Q: What does the source list for Oc1ncnc2[nH]ncc12 [AP, allopurinol]?
A: ED50 (dose required for 50% inhibition of XO) (xanthine oxidase (XO)): 6 µg/mL; % Control (superoxide generation by XO) (xanthine oxidase (XO); test material at 1 μg/ml): 89%; % Control (superoxide generation by XO) (xanthine oxidase (XO); test material at 5 μg/ml): 54%; % Control (superoxide generation by XO) (xanthine oxidase (XO); test material at 10 μg/ml): 43%

Q: What does the source list for Cc1nc(-c2ccc(OCC(C)C)c(C#N)c2)sc1C(=O)O [Febuxostat]?
A: Serum Uric Acid level at the end of 4 weeks ([1]; 13 patients per group): 7.23 ± 0.72 mg/dL; Serum Uric Acid level at the end of 8 weeks ([1]; 13 patients per group): 6.08 ± 0.6 mg/dL; Mean Percentage Reduction in Serum Uric Acid Level after 8 weeks [1, 2]: −29.58 ± 5.74 %; Mean Percentage Reduction in Serum Uric Acid at the end of 4 weeks [1, 2]: −16.31 ± 5.32*^NS %; Adverse effects reported (hyperuricemic patients): Two patients in the Febuxostat group had elevated mildly elevated total bilirubin and 1 patient had complained of nausea and vomiting

Q: With “beta-1-O-galloyl-2,4-chebuloyl-3,6-(R)-hexahydroxydiphenoyl-D-glucose [Chebulagic acid]” as the compound, how does the “Enhancement of the cytotoxicity of doxorubicin” value (HepG2 cells) read?
A: Its value is 20 fold.

Q: What about the IC50 (COX-1) of the same compound?
A: Its IC50 is 15 ± 0.288 µM.

Q: What about the IC50 (COX-2) of the same compound?
A: The IC50 was 0.92 ± 0.011 µM.

Q: What about the IC50 (5-LOX) of the same compound?
A: Its IC50 is 2.1 ± 0.057 µM.

Q: What about the Ki (maltase) of the same compound?
A: Its Ki is 6.6 µM.

Source: patent US9750778B2, “Terminalia chebula and Terminalia bellirica extracts for inhibition of xanthine oxidase” (priority 2013, dated 2017)
